“Also recorded” adds a separate entry of the source.
Assays:
[1] = test system: pseudotyped particles bearing the SARS-CoV-2 B.1 S protein; type: cell-based; conditions: TMPRSS2-dependent entry
SARS-CoV-2 = test system: SARS-CoV-2; parameters: method as in PMID 32142651, PMID 33676899, PMID 33393462, PMID 32312781, PMID 35382133; conditions: cell culture; cited from earlier work
SARS-CoV-2 infection = conditions: cited from earlier work; for benefit to COVID-19 patients: clinical trials, oral (camostat), intravenous (nafamostat)
[2] = test system: particles pseudotyped with the glycoprotein of vesicular stomatitis virus (VSV-G); type: cell-based
[3] = test system: particles pseudotyped with the glycoprotein of vesicular stomatitis virus (VSV-G); type: cell-based; remark: listed apart in the source
[4] = test system: pseudotyped particles bearing the SARS-CoV-2 B.1 S protein; type: cell-based; conditions: TMPRSS2-independent (cathepsin L-dependent) entry
MCF-10A cells = assay: AlamarBlue cell viability assay; conditions: concentrations up to 100 µM
salmon testes DNA = assay: UV-thermal DNA denaturation with salmon testes DNA; conditions: compound to DNA base ratio 0.1, phosphate buffer pH 7
Protocol: UV thermal denaturation experiments
Thermal melting experiments were conducted with a Varian Cary 300 Bio spectrophotometer equipped
with a 6×6 multicell temperature-controlled block. Temperatures were monitored with a thermistor
inserted into a 1 cm quartz cuvette containing the same volume of water as in the sample cells. Absorbance
changes at 260 nm were monitored from a range of 30 °C to 90 °C with a heating rate of 1 °C min -1 and a
data collection rate of five points per °C. The salmon sperm DNA was purchased from Sigma Aldrich
(extinction coefficient ε260= 6600 M-1 cm-1). A quartz cell with a 1 cm path length was filled with a 1 mL
solution of DNA or DNA-compound complex.
were prepared in a phosphate buffer ([10 mM K2HPO4/KH2PO4], adjusted to pH 7) so that a compound to
DNA base ratio of 0.1 was obtained. The thermal melting temperatures of the duplex or duplex-compound
complex obtained from the first derivative of the melting curves are reported.

poly(dA•dT)2 = test system: poly(dA•dT)2; parameters: method as in PMID 18247550; conditions: DNA oligo rich in AT pairs; cited from earlier work

CN(C)C(=O)COC(=O)Cc1ccc(OC(=O)c2ccc(NC(=N)N)cc2)cc1 [Camostat, camostat]
SARS-CoV-2 S protein-mediated entry into Calu-3 cells [1]: inhibited
inhibition of SARS-CoV-2 infection (SARS-CoV-2): inhibit SARS‐CoV‐2 infection with high efficiency
benefit to COVID-19 patients (SARS-CoV-2 infection): little if any benefit
VSV-G-driven entry into Vero76 cells [2]: not inhibited
VSV-G-driven entry into Calu-3 cells [3]: reverse observation
SARS-CoV-2 S protein-driven entry into Vero76 cells [4]: not inhibited

N=C(N)Nc1ccc(NC(=S)Nc2ccccc2)cc1 [Compound 2]
IC50 (MCF-10A cells): could not be found
cytotoxicity (cell death) (MCF-10A cells; 72 hours): no cytotoxicity; also recorded: no significant cell‐death was detected
ΔTm (salmon testes DNA): 0.65 °C

N=C(N)Nc1ccc(NC(=S)Nc2ccccn2)cc1 [Compound 20]
ΔTm (salmon testes DNA): −0.25 °C

N=C(N)c1ccc2cc(OC(=O)c3ccc(N=C(N)N)cc3)ccc2c1 [Nafamostat, nafamostat]
benefit to COVID-19 patients (SARS-CoV-2 infection): little if any benefit

CCN(CC)CCCC(C)Nc1ccnc2cc(Cl)ccc12 (centres unmarked) [chloroquine]
VSV-G-driven entry into Vero76 cells [2]: reduced by the highest concentration
VSV-G-driven entry into Calu-3 cells [3]: reverse observation
SARS-CoV-2 S protein-driven entry into Vero76 cells [4]: reduced by the highest concentration

N=C(N)Nc1ccc(NC(=S)Nc2ccc(NC(=N)N)cc2)cc1 [hit‐compound]
ΔTm (poly(dA•dT)2): 23.0 °C

aprotinin
clinical benefit in COVID-19 patients (SARS-CoV-2 infection; aerosolized): of clinical benefit
tolerability in COVID-19 patients (SARS-CoV-2 infection; aerosolized): well tolerated
